Each structure is given as a SMILES string.

The test deals with HIV-1 (NL4-3 RLuc reporter virus in MT-2 cells). Put plainly: Inhibition of HIV-1 replication, MT-2 spreading infection assay. The test is classed as cell-based. The note with it: Human immunodeficiency virus 1, NL43, MT2, 96 h, read-out: HIV activity (μM). The protocol: Inhibition of HIV-1 viral replication was assayed in a spreading infection using MT-2 cells and NL4-3 RLuc reporter virus. For dose-response curves, compounds were initially diluted with DMSO to 100-fold the starting concentration in a 96-well plate and subjected to a series of 3-fold dilutions in DMSO for a total of eight or nine dilutions. If a single compound concentration was tested, the compound was diluted to 100-fold the desired concentration in DMSO. Compounds were then diluted 50-fold with infection media prepared by diluting NL4-3 RLuc virus stock to 400 IU/100 ul with complete RPMI. Then, 100 ul of 50-fold-diluted compound was transferred to 20,000 MT-2 cells that were preceded in 96-well plates in 100 ul of complete RPMI for a final volume of 200 ul, followed by incubation at 37° C. for 96 h. The final MOI in infected plates was 0.02, and the final DMSO concentration in all wells was 1%. All assays were run with three replicates. For each replicate, one well received DMSO only, and one well received medium only for normalization and background correction. […] Plates were read on a luminescence plate reader (Synergy H1; BioTek Instruments, Inc.).

As for `COc1cc2c(cc1OCc1ccccc1)C(Cl)CNC2/C=C/c1cc2c(cc1C)OCO2` (stereo not drawn) [Compound 61], the IC50 worked out at 2.5 µM. To `COc1cc2c(c(OC)c1OCc1ccccc1)CCNC2/C=C/c1cc2c(cc1C)OCO2` (stereo not drawn) [Compound 6, 6-benzyloxy-5,7-dimethoxy-1-[(E)-2-(6-methyl-1,3-benzodioxol-5-yl)vinyl]-1,2,3,4-tetrahydroisoquinoline] belongs 0.37 µM. As for `CCC1Cc2cc(OCc3ccccc3)c(OC)cc2C(/C=C/c2cc3c(cc2C)OCO3)N1` (stereo not drawn) [Compound 24, 6-Benzyloxy-7-methoxy-3-ethyl-1-[(E)-2-(6-methyl-1,3-benzodioxol-5-yl)vinyl]-1,2,3,4-tetrahydroisoquinoline], the figure is 0.5 µM.

Regarding `COc1c(OCc2ccccc2)cc2c(c1OC)C(/C=C/c1cc3c(cc1C)OCO3)NCC2` (stereo not drawn) [Compound 10, 6-benzyloxy-7,8-dimethoxy-1-[(E)-2-(6-methyl-1,3-benzodioxol-5-yl)vinyl]-1,2,3,4-tetrahydroisoquinoline], the IC50 came to 2.5 µM. As for `COc1cc2c(cc1OCc1ccccc1)C(C)CNC2/C=C/c1cc2c(cc1C)OCO2` (stereo not drawn) [Compound 12, 6-Benzyloxy-7-methoxy-4-methyl-1-[(E)-2-(6-methyl-1,3-benzodioxol-5-yl)vinyl]-1,2,3,4-tetrahydroisoquinoline], the figure is 1.4 µM; as for `COc1cc2c(cc1OCc1ccccc1)CCN(O)C2/C=C/c1cc2c(cc1C)OCO2` (stereo not drawn) [Compound 36, 6-benzyloxy-2-hydroxy-7-methoxy-1-[(E)-2-(6-methyl-1,3-benzodioxol-5-yl)vinyl]-3,4-dihydro-1H-isoquinoline], 0.053 µM.

The values are drawn from US12024521B2, “Isoquinoline derivatives, methods of synthesis and uses thereof” (priority 2020, dated 2024).
